Values quoted from earlier work in patent US12502358B1, “Centanafadine multiphasic controlled-release pharmaceutical formulation” (Innovate Therapeutics LLC, priority 2024, dated 2025).

What was measured:
[1] = target: norepinephrine reuptake transporter (NET) (Homo sapiens, UniProt P23975); details: rank among NET, DAT, SERT
[2] = target: dopamine reuptake transporter (DAT) (Homo sapiens, UniProt Q01959); details: fraction of the potency towards NET
[3] = target: serotonin reuptake transporter (SERT) (Homo sapiens, UniProt P31645); details: fraction of the potency towards NET
[4] = per BCS classification

Sequence of serotonin reuptake transporter (SERT) (P31645 whole entry, species assumed): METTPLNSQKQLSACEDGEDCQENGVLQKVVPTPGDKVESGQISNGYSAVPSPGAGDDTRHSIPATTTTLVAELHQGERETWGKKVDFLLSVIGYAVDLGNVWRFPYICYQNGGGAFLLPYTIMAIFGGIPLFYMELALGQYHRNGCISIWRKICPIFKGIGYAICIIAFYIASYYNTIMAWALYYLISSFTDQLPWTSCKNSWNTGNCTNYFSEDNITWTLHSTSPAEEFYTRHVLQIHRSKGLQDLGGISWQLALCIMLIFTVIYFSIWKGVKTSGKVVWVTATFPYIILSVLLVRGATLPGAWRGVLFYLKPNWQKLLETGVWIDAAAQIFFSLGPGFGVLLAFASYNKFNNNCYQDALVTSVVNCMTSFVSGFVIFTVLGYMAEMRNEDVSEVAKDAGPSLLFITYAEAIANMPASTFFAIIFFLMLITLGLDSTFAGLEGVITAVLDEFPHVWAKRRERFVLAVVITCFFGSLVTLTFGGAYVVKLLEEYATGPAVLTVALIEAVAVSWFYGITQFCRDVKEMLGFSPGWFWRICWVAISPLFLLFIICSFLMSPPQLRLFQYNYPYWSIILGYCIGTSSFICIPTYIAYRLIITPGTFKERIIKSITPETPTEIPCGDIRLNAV
Sequence of norepinephrine reuptake transporter (NET) (P23975 whole entry): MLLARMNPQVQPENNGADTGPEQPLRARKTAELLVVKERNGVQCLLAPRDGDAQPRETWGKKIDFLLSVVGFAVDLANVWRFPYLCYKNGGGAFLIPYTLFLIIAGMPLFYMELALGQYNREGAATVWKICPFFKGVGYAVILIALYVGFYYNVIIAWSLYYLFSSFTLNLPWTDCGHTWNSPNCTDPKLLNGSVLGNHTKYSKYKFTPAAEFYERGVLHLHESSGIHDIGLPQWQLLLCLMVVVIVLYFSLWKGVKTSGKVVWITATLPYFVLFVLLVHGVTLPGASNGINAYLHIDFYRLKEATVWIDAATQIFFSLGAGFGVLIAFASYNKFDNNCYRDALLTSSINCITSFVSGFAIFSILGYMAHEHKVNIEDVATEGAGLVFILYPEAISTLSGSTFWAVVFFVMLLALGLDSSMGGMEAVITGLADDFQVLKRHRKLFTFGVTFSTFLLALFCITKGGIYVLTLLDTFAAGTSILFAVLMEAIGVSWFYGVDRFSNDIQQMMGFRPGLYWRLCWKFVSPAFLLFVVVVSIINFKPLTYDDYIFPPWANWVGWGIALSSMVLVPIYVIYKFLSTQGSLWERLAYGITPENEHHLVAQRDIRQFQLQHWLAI
Sequence of dopamine reuptake transporter (DAT) (Q01959 whole entry, species assumed): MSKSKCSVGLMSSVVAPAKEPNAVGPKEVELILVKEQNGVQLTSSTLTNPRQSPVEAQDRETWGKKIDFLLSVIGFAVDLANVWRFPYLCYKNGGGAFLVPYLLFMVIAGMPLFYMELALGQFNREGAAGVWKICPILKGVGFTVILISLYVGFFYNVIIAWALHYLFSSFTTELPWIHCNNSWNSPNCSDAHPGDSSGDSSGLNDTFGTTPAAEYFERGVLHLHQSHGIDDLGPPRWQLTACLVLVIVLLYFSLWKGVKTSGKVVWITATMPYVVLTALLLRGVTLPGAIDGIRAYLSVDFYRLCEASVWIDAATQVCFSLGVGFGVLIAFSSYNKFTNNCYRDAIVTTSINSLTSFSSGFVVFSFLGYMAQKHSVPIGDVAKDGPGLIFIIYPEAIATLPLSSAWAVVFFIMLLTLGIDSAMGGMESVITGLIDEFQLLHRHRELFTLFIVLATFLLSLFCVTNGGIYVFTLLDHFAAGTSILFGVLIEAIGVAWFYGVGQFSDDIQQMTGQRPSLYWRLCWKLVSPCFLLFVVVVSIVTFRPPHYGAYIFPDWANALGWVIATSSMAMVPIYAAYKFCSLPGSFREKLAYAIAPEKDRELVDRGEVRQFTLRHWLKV

## c1ccc2cc([C@]34CNC[C@H]3C4)ccc2c1 [Centanafadine, (1R,5S)-1-(naphthalen-2-yl)-3-azabicyclo[3.1.0]hexane]
[1]
  potency towards the norepinephrine reuptake transporter (NET): most potency
[2]
  potency towards the dopamine reuptake transporter (DAT) relative to NET: one-sixth as much
[3]
  potency towards the serotonin reuptake transporter (SERT) relative to NET: one-fourteenth as much
[4]
  solubility: highly soluble
